“And” between values parts separate entries of the source, which are not always exact repeats. Equal values may be shown once. Read-outs that look alike come from different tables or passages of the source.
How the values were obtained:
[1] = biological target: T1, GluN1-K178AzF/GluN2A receptors (Rattus norvegicus, UniProt P35439+Q00959, K178F); assay: TEVC recordings in Xenopus oocytes, modulator sensitivity before and after UV photocrosslinking; assay type: cell-based
T1 construct: For full-length multimeric membrane-embedded receptors studied in cellulo, as done in the present work; expressed in transfected cells; host or cells: Xenopus laevis oocytes, co-injected with amber suppressor tRNA (Yam) and AzF-RS
Experimental: (§1) The pcDNA3-based expression plasmids for rat GluN1-1a (named GluN1 herein), rat GluN2A, and mouse GluN2B (also known as ε2) subunits, Pfu-based site-directed mutagenesis strategy, and sequencing procedure have been described previously[68],[69]. Incorporation of the unnatural amino acids (UAAs) AzF and BzF into NMDARs was performed using the genetic code expansion methodology as previously described[52],[53],[83]. The plasmid pSVB.Yam carrying the gene encoding the amber suppressor tRNA derived from B. stearothermophilus Tyr-tRNACUA, while the aminoacyl-tRNA synthetases (aaRS) construction for AzF and BzF derived from E. coli TyrRS[84],[85].
(§2) Recombinant NMDARs were expressed in Xenopus laevis oocytes after nuclear injection of 36 nl of a mixture of cDNAs (at 10–30 ng/μl) encoding various GluN1 and GluN2 subunits (ratio 1:1). Oocytes were prepared, injected, incubated, and voltage-clamped as described previously. For UAA incorporation, oocytes were co-injected with 36 nl of a cDNA mixture encoding for of GluN1, GluN2, Yam, and aaRS as follows, unless otherwise indicated in the text: GluN1-K178amber (120 ng/μl), GluN2A (80 ng/µl) or GluN2B (120 ng/μl), Yam (10 ng/μl), AzF-RS (5 ng/μl). After injection, oocytes were incubated at 19 °C in a Barth solution containing (in mM) 88 NaCl, 1 KCl, 0.33 Ca(NO3)2, 0.41 CaCl2, 0.82 MgSO4, 2.4 NaHCO3, 10 HEPES (pH adjusted to 7.6 with NaOH) supplemented with gentamicin ([…]) and the NMDAR glutamate binding site competitive antagonist D-APV (50 μM). AzF and BzF were added to the incubation medium at final concentrations of 1 mM and 2 mM, respectively.
(§3) For all experiments, except those on pH and spermine sensitivity, the standard external solution contained (in mM): 100 NaCl, 0.3 BaCl2, and 5 HEPES (pH adjusted to 7.3 with KOH). […] For the pH and spermine sensitivity experiments, an external solution enriched in HEPES was used to insure proper pH buffering. Unless otherwise mentioned, NMDAR-mediated currents were induced by simultaneously applications of saturating concentrations of glutamate and glycine (100 μM each). Glutamate and glycine dose-response curves (DRC) were performed in the presence of 100 µM glycine and 100 µM glutamate, respectively. Recordings were performed at a holding potential of −60 mV and at room temperature. Data were collected and analyzed using Clampex 10.5 and Clampfit 10.5 (Molecular Devices), respectively, and fitted using KaleidaGraph 4.0 (Synergy software).
(§4) EC50 and nH were fitted as free parameters. […] For proton DRC, corrections for small shifts in the reference potential of bath electrodes and analysis of the data were performed as previously described. Spermine experiments were performed and analyzed as previously described. In brief, spermine sensitivity was assessed at pH 6.5 and at a holding potential of −30 mV to maximize the spermine induced potentiation. […] EC50, a and nH were set as free parameters. MK-801 is an NMDAR open channel blocker with slow reversibility and, consequently, the rate at which MK-801 inhibits NMDAR responses depends on the level of channel activity, that is, channel open probability (Po). Based on this principle, MK-801 is classically used to estimate the level of NMDAR channel activity in macroscopic whole-cell recordings[36],[47],[56],[86],[87]. Note, however, that MK- 801 inhibition kinetics can index relative, not absolute, Po. MK-801 solutions (10 nM for GluN2A-containing receptors and 50 nM for GluN2B-containing receptors) were prepared by dilution of a stock solution (50 mM) into the agonist containing solutions. MK-801 time constants of inhibition (τon) were obtained by fitting currents with a single-exponential component to a time window corresponding to 10–90% of maximum inhibition. On-rate (kon) constants were then calculated assuming a pseudo first-order reaction scheme: kon = 1 / ([MK-801]*τon).

[2] = biological target: T2, GluN1-K178AzF/GluN2B receptors (UniProt P35439+Q01097, K178F); assay: as above; assay type: cell-based, rat (GluN1), mouse (GluN2B); settings: for Isper/Io 20 μM: 20 μM spermine; for Isper/Io 20 μM / Isper/Io 200 μM / Isper/Io 1000 μM / spermine maximal potentiation / spermine nH / EC50: pH 6.5, -30 mV; for Isper/Io 200 μM: 200 μM spermine; for Isper/Io 1000 μM: 1000 μM spermine; for EC50: read-out: spermine EC50
T2 construct: For full-length multimeric membrane-embedded receptors studied in cellulo, as done in the present work; expressed in transfected cells; host or cells: Xenopus laevis oocytes, co-injected with amber suppressor tRNA (Yam) and AzF-RS
Experimental: as §1, §2, §3, §4

[3] = biological target: T3, wild-type (wt) GluN1/GluN2B receptors (UniProt P35439+Q01097); assay: TEVC recordings in Xenopus oocytes, allosteric modulator sensitivity; assay type: cell-based, rat (GluN1), mouse (GluN2B)
T3 construct: For full-length multimeric membrane-embedded receptors studied in cellulo, as done in the present work; expressed in transfected cells; host or cells: Xenopus laevis oocytes (nuclear cDNA injection, pcDNA3 plasmids)
Experimental: as §1, §2, §3, §4

[4] = biological target: T4, GluN1-N512C-L777C/GluN2B-E517C-L781C receptors (UniProt P35439+Q01097, E517C/L777C/L781C/N521C); assay: TEVC recordings in Xenopus oocytes, zinc and ifenprodil inhibition dose-response; assay type: cell-based, rat (GluN1), mouse (GluN2B)
T4 construct: For full-length multimeric membrane-embedded receptors studied in cellulo, as done in the present work; expressed in transfected cells; host or cells: Xenopus laevis oocytes
Experimental: as §1, §2, §3, §4

[5] = biological target: T5, GluN1/GluN2B-N218C receptors (UniProt P35439+Q01097, N218C); assay: as above; assay type: cell-based, rat (GluN1), mouse (GluN2B)
T5 construct: For full-length multimeric membrane-embedded receptors studied in cellulo, as done in the present work; expressed in transfected cells; host or cells: Xenopus laevis oocytes
Experimental: as §1, §2, §3, §4

[6] = pH 8.3 (second column so headed), +UV
[7] = pH 6.5, holding potential -30 mV

T1 sequence (Q00959 23-1464, other chains not shown): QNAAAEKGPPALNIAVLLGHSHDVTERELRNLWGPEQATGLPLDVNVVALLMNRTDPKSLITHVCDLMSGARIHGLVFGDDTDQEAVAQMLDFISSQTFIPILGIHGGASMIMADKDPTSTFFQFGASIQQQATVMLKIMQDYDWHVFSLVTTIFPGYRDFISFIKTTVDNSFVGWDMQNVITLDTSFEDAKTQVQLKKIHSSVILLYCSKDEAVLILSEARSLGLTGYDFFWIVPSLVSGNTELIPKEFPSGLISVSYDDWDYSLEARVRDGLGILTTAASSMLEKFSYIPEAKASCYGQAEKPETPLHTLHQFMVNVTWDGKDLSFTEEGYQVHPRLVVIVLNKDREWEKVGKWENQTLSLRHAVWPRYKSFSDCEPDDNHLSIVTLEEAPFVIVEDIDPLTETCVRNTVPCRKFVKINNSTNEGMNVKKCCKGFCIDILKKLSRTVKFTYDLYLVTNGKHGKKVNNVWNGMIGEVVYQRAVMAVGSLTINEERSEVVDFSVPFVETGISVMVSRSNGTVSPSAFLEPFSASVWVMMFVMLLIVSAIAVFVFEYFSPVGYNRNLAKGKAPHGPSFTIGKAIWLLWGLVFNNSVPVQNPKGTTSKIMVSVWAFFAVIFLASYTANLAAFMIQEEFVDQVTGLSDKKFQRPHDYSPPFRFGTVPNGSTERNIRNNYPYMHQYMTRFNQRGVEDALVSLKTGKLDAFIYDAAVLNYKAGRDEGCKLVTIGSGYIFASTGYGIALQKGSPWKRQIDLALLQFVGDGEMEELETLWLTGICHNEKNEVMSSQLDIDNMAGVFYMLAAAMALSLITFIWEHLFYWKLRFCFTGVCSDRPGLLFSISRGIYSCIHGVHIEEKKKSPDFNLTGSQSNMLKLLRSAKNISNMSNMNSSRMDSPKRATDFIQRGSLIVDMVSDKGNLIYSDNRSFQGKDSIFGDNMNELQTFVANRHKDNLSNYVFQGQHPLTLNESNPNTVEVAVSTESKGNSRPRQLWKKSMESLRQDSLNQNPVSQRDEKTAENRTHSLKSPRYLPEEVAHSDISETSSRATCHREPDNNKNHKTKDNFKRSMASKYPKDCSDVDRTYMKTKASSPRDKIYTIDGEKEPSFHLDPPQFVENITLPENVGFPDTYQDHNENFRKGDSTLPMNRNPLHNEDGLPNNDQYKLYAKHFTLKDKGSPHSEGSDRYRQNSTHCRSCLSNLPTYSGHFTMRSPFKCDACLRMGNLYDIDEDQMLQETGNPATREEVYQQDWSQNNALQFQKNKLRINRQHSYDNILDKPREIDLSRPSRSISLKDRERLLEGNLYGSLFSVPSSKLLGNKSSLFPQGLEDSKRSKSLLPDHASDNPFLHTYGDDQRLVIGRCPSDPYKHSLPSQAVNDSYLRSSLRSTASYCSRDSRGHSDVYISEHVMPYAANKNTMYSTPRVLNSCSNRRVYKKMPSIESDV
T2 sequence (Q01097 27-1482, other chains not shown): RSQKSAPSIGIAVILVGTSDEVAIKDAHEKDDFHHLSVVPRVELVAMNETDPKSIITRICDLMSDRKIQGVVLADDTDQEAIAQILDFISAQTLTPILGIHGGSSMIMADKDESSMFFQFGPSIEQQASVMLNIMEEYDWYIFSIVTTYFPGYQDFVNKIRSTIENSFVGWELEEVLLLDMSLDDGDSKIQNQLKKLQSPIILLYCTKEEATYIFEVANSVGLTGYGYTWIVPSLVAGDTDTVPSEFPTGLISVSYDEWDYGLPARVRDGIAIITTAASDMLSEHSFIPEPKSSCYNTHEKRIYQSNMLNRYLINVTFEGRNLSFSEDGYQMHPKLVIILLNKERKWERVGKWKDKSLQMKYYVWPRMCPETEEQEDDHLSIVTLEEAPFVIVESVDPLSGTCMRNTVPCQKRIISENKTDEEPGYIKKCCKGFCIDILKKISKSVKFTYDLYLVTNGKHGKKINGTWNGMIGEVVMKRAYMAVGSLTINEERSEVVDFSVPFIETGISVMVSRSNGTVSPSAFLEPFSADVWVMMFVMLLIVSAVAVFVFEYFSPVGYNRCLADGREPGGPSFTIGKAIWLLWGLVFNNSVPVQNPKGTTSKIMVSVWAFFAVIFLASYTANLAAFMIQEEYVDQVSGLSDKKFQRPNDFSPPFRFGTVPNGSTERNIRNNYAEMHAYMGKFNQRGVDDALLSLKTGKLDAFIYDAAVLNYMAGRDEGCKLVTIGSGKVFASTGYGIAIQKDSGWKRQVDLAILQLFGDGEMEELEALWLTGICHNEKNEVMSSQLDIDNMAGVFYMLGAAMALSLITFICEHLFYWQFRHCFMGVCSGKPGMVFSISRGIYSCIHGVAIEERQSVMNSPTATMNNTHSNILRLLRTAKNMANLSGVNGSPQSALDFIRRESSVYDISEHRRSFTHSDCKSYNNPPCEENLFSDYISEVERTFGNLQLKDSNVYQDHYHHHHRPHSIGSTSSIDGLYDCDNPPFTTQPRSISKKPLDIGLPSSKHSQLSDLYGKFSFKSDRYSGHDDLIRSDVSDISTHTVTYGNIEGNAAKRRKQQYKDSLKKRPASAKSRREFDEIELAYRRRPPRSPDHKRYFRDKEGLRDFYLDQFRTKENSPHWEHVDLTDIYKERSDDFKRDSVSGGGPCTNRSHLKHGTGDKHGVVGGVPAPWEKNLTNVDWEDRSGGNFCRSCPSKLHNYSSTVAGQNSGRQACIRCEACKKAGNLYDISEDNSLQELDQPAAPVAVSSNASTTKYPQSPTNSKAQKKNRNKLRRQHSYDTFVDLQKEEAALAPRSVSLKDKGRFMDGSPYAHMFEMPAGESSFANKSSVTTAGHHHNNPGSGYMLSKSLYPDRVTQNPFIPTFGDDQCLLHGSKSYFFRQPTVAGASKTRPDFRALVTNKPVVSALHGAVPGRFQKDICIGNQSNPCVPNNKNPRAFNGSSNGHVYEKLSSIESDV
T3 sequence (Q01097 27-1482, other chains not shown): as above

[1H+] [proton]
pHIC50 (proton sensitivity) ([1]; after UV): 7.01 ± 0.01 | proton Hill slope (nH) ([1]; after UV): 1.93 ± 0.07 | pHIC50 (proton sensitivity) ([1]; before UV): 7.00 ± 0.02 | proton Hill slope (nH) ([1]; before UV): 1.91 ± 0.11 | proton, relative current at pH 6.3 ([1]; pH 6.3, +UV): 0.04 ± 0.01 | proton, relative current at pH 6.3 ([1]; pH 6.3, -UV): 0.04 ± 0.01 | proton, relative current at pH 7.3 ([1]; pH 7.3, +UV): 0.78 ± 0.03 | proton, relative current at pH 7.3 ([1]; pH 7.3, -UV): 0.79 ± 0.03 | proton, relative current at pH 8.3 [1, 6]: 1.00 ± 0.02 | proton, relative current at pH 8.3 ([1]; pH 8.3, +UV): 0.99 ± 0.02 | proton, relative current at pH 8.3 ([1]; pH 8.3, -UV): 0.99 ± 0.02 | proton, relative current at pH 9.3 ([1]; pH 9.3, -UV): 1.01 ± 0.04 | pHIC50 (proton sensitivity) ([2]; after UV): 6.90 ± 0.02 | proton Hill slope (nH) ([2]; after UV): 0.99 ± 0.03 | pHIC50 (proton sensitivity) ([2]; before UV): 7.60 ± 0.01 | proton Hill slope (nH) ([2]; before UV): 1.37 ± 0.05 | proton, relative current at pH 6.3 ([2]; pH 6.3, +UV): 0.21 ± 0.09 | proton, relative current at pH 6.3 ([2]; pH 6.3, -UV): 0.03 ± 0.02 | proton, relative current at pH 7.3 ([2]; pH 7.3, +UV): 0.71 ± 0.02 | proton, relative current at pH 7.3 ([2]; pH 7.3, -UV): 0.28 ± 0.04 | proton, relative current at pH 8.3 [2, 6]: 0.98 ± 0.01 | proton, relative current at pH 8.3 ([2]; pH 8.3 (second column so headed), -UV): 1.00 ± 0.03 | proton, relative current at pH 8.3 ([2]; pH 8.3, +UV): 0.97 ± 0.03 | proton, relative current at pH 8.3 ([2]; pH 8.3, -UV): 0.90 ± 0.04 | rightward shift in the pH dose-response curve ([2]; post-UV vs pre-UV): > 0.5 pH-unit

NCCCNCCCCNCCCN [spermine]
Isper/Io 20 μM ([3]; 20 μM spermine, pH 6.5, -30 mV): 1.74 ± 0.06 | Isper/Io 200 μM ([3]; 200 μM spermine, pH 6.5, -30 mV): 6.89 ± 0.52 | Isper/Io 1000 μM ([3]; 1000 μM spermine, pH 6.5, -30 mV): 12.55 ± 0.41 | spermine maximal potentiation [3, 7]: 11.2 ± 3.3 | spermine nH [3, 7]: 1.26 ± 0.09 | EC50 ([3]; pH 6.5, holding potential -30 mV, read-out: spermine EC50): 174 ± 64.5 µM | Isper/Io 20 μM ([2]; +UV): 1.24 ± 0.03 | Isper/Io 20 μM ([2]; -UV): 2.11 ± 0.15 | Isper/Io 200 μM ([2]; +UV): 2.12 ± 0.26 | Isper/Io 200 μM ([2]; -UV): 13.65 ± 1.01 | Isper/Io 1000 μM ([2]; +UV): 2.49 ± 0.42 | Isper/Io 1000 μM ([2]; -UV): 23.05 ± 1.52 | spermine maximal potentiation ([2]; after UV): 1.6 ± 0.5 | spermine nH ([2]; after UV): 1.14 ± 0.16 | EC50 ([2]; after UV): 93 ± 22.8 µM | spermine maximal potentiation ([2]; before UV): 26.1 ± 2.5 | spermine nH ([2]; before UV): 1.29 ± 0.22 | EC50 ([2]; before UV): 215 ± 63.2 µM

CC(C(O)c1ccc(O)cc1)N1CCC(Cc2ccccc2)CC1 (centres unmarked) [ifenprodil, Ifenprodil]
ifenprodil Hill slope (nH) [3]: 1.22 ± 0.04 and 1.14 ± 0.11 and 1.11 ± 0.07 | ifenprodil maximal inhibition [3]: 0.95 ± 0.02 and 0.93 ± 0.01 | ifenprodil Hill slope (nH) ([2]; after UV): 1.25 ± 0.11 | ifenprodil maximal inhibition ([2]; after UV): 0.54 ± 0.06 | ifenprodil Hill slope (nH) ([2]; before UV): 1.25 ± 0.39 | ifenprodil maximal inhibition ([2]; before UV): 0.98 ± 0.09 | ifenprodil Hill slope (nH) [4]: 0.83 ± 0.13 | ifenprodil maximal inhibition [4]: 0.76 ± 0.03 | ifenprodil Hill slope (nH) [5]: 1.08 ± 0.06 | ifenprodil maximal inhibition [5]: 0.99 ± 0.02
